Assay results: US6855713B2, “Benzimidazole derivatives, a process for their manufacture and use as a medicine” (Boehringer Ingelheim Pharma KG, priority 2001, dated 2005)
Counter-ions that a name gives are not always drawn.

Biological target: T1, rh beta trypsin (Homo sapiens, UniProt P20231)
T1 construct: purchased Promega
Experiment: Trypsin (tryptase) inhibition, cleavage of N-p-Gly-Pro-Lys-para-nitroaniline measured at 405 nm
Format: biochemical
Details: in vitro tests on the pro-drugs of formula IIA; read-out: IC50
Protocol: The compounds of the invention are notable for their effective trypsin-inhibiting property. The said capacity to inhibit trypsin activity was determined in accordance with the following trial descriptions.
The determinations are carried out in tris-HCl buffer (100 mM), that also contained calcium (5 mM) and heparin ([…]), at a pH of 7.4. As the standard, rh beta trypsin is used, this is commercially obtainable, for example, from Promega. A suitable substrate is N-p-Gly-Pro-Lys-para-nitroaniline in a concentration of 0.6 mM. The substrate is digested with trypsin, whereby p-nitro-aniline is obtained that can be measured at 405 nm. Normally, an incubation period of 5 minutes and an incubation temperature of 37° C. is chosen. For the enzyme activity, 0.91 U/ml are used. The determination is carriedout in an auto-analyser (Cobas Bio) from the firm Hoffmann LaRoche. The potential inhibitor substances are used in the screening procedure in concentrations of 10 μM, and the inhibition of the trypsin is given in percentages. At an inhibition in excess of 70%, the IC50 is determined (the concentration at which 50% of the enzyme activity is inhibited). After a 5-minute pre-incubation of the potential inhibiting substance, the substrate is added for the start of the reaction, whereby the production of p-nitro-aniline is taken, after 5 minutes, after testing the linearity, as a measure of the enzyme activity.

T1 sequence (P20231 31-275): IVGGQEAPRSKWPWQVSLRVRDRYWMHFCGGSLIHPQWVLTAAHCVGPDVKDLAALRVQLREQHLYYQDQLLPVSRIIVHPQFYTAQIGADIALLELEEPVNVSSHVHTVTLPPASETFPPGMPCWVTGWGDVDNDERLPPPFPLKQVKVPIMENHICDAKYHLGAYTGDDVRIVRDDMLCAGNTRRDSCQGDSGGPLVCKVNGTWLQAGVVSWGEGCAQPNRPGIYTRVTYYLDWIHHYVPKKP

| SMILES | IC50 |
| --- | --- |
| CCCCCCCCOC(=O)N=C(N)c1ccc(CCc2nc3cc(C(=O)N4CCC(NC(=O)c5ccccc5)CC4)ccc3n2C)cc1 [IIA10] | 7910 nM |
| Cn1c(CCc2ccc(C(N)=NC(=O)c3ccccc3)cc2)nc2cc(C(=O)N3CCC(NC(=O)c4ccccc4)CC3)ccc21 [IIA17] | 360 nM |

Same assay, conditions: in vitro; tris-HCl buffer pH 7.4 with calcium and heparin; substrate 0.6 mM; 5 minutes, 37° C.; read-out: Trypsin-inhibiting property

| SMILES | IC50 |
| --- | --- |
| Cn1c(CCc2ccc(C(=N)N)cc2)nc2cc(C(=O)N3CCC(NC(=O)Nc4ccc(Cl)cc4Cl)CC3)ccc21 [Example 35, 4-[2-(5-{4-[3-(2,4-Dichloro-phenyl)-ureido]-piperidine-1-carbonyl}-1-methyl-1H-benzimidazole-2-yl)-ethyl]-benzamidine] | 1 to 20 nM |
| Cn1c(CCc2ccc(C(=N)N)cc2)nc2cc(C(=O)N3CCC(NC(=O)Nc4cccc(C(F)(F)F)c4)CC3)ccc21 [Example 32, 4-[2-(1-Methyl-5-{4-[3-(3-trifluoromethyl-phenyl)-ureido]-piperidine-1-carbonyl}-1H-benzimidazole-2-yl)-ethyl]-benzamidine] | 1 to 20 nM |
| Cn1c(CCc2ccc(C(=N)N)cc2)nc2cc(C(=O)N3CCC(NC(=O)Nc4cccc(Cl)c4)CC3)ccc21 [Example 60, 2-[2-(4-Amidinophenyl)-ethyl]-1-methyl-benzimidazole-5-yl-carboxylic acid-{4-[3-(3-chloro)-phenylureido]piperidinyl}-amide] | 0.1 to 1 nM |
| Cn1c(CCc2ccc(C(=N)N)cc2)nc2cc(C(=O)N3CCC(NC(=O)Nc4c(F)cccc4F)CC3)ccc21 [Example 38, 4-[2-(5-{4-[3-(2,6-Difluoro-phenyl)-ureido]-piperidine-1-carbonyl}-1-methyl-1H-benzimidazole-2-yl)-ethyl] -benzamidine] | 1 to 20 nM |
| Cn1c(CCc2ccc(C(=N)N)cc2)nc2cc(C(=O)N3CCC(NC(=O)Cc4cccc5ccccc45)CC3)ccc21 [Example 189] | 1 to 20 nM |
| CN(C1CCN(C(=O)c2ccc3c(c2)nc(CCc2ccc(C(=N)N)cc2)n3C)CC1)S(=O)(=O)c1cccc(Cl)c1Cl [Example 171] | 20 to 50 nM |
| Cn1c(CCc2ccc(C(=N)N)cc2)nc2cc(C(=O)N3CCC(NC(=O)Nc4ccc(Cl)cc4)CC3)ccc21 [Example 31, 4-[2-(5-{4-[3-(4-Chloro-phenyl)-ureido]-piperidine-1-carbonyl}-1-methyl-1H-benzimidazole-2-yl)-ethyl]-benzamidine] | 1 to 20 nM |
| Cc1cccc(NC(=O)NC2CCN(C(=O)c3ccc4c(c3)nc(CCc3ccc(C(=N)N)cc3)n4C)CC2)c1 [Example 25, 4-(2-{1-Methyl-5-[4-(3-m-tolyl-ureido)-piperidine-1-carbonyl]-1H-benzimidazole-2-yl}-ethyl)-benzamidine] | 1 to 20 nM |
| Cn1c(CCc2ccc(C(=N)N)cc2)nc2cc(C(=O)N3CCC(Nc4cccc(Cl)c4Cl)CC3)ccc21 [Example 65] | 1 to 20 nM |
| COc1cccc(NC(=O)NC2CCN(C(=O)c3ccc4c(c3)nc(CCc3ccc(C(=N)N)cc3)n4C)CC2)c1 [Example 28, 4-[2-(5-{4-[3-(3-Methoxy-phenyl)-ureido]-piperidine-1-carbonyl}-1-methyl-1H-benzimidazole-2-yl)-ethyl]-benzamidine] | 0.1 to 1 nM |
| Cn1c(CCc2ccc(C(=N)N)cc2)nc2cc(C(=O)N3CCC(NC(=O)Nc4ccc5ccccc5c4)CC3)ccc21 [Example 36, 4-(2-{1-Methyl-5-[4-(3-naphthalen-2-yl-ureido)-piperidine-1-carbonyl]-1H-benzimidazole-2-yl}-ethyl)-benzamidine] | 1 to 20 nM |
| Cn1c(CCc2ccc(C(=N)N)cc2)nc2cc(C(=O)N3CCC(NC(=O)c4cc(Cl)ccc4Cl)CC3)ccc21 [Example 64] | 0.1 to 1 nM |
| Cn1c(CCc2ccc(C(=N)N)cc2)nc2cc(C(=O)N3CCC(NC(=O)Nc4ccccc4Br)CC3)ccc21 [Example 37, 4-[2-(5-{4-[3-(2-Bromo-phenyl)-ureido]-piperidine-1-carbonyl}-1-methyl-1H-benzimidazole-2-yl)-ethyl]-benzamidine] | 0.1 to 1 nM |
| CC(=O)c1cccc(NC(=O)NC2CCN(C(=O)c3ccc4c(c3)nc(CCc3ccc(C(=N)N)cc3)n4C)CC2)c1 [Example 56, 2-[2-(4-Amidinophenyl)-ethyl]-1-methyl-benzimidazole-5-yl-carboxylic acid-{4-[3-(3-acetyl)-phenylureido]piperidinyl}-amide] | 1 to 20 nM |
| Cn1c(CCc2ccc(C(=N)N)cc2)nc2cc(C(=O)N3CCN(C/C=C/c4ccccc4)CC3)ccc21 [Example 1, [2-(4-amidinophenyl)-ethyl]-1-methyl-benzimidazole-5-yl-carboxylic acid-[4-(3-phenyl-allyl)-piperazinyl]-amide-dihydrochloride] | 1 to 20 nM |
| Cn1c(CCc2ccc(C(=N)N)cc2)nc2cc(C(=O)N3CCC(NC(=O)c4cccc(Br)c4)CC3)ccc21 [Example 45, 2-[2-(4-Amidinophenyl)-ethyl]-1-methyl-benzimidazole-5-yl-carboxylic acid-[4-(3-bromo)-benzamidopiperidinyl)-amide] | 0.1 to 1 nM |
| CN(C1CCN(C(=O)c2ccc3c(c2)nc(CCc2ccc(C(=N)N)cc2)n3C)CC1)S(=O)(=O)c1cccc2ccccc12 [Example 169] | 1 to 20 nM |
| Cn1c(CCc2ccc(C(=N)N)cc2)nc2cc(C(=O)N3CCC(NC(=O)Nc4ccc(Br)cc4)CC3)ccc21 [Example 39, 4-[2-(5-{4-[3-(4-Bromo-phenyl)-ureido]-piperidine-1-carbonyl}-1-methyl-1H-benzimidazole-2-yl)-ethyl] -benzamidine] | 1 to 20 nM |
| Cn1c(CCc2ccc(C(=N)N)cc2)nc2cc(C(=O)N3CCC(NS(=O)(=O)/C=C/c4ccccc4)CC3)ccc21 [Example 167] | 1 to 20 nM |
| Cn1c(CCc2ccc(CN)cc2)nc2cc(C(=O)N3CCC(NC(=O)c4ccccc4)CC3)ccc21 [Example 15, 2-[2-(4-Aminomethylphenyl)-ethyl]-1-methyl-benzimidazole-5-yl-carboxylic acid-(4-benzamido-piperidinyl)-amide] | 1 to 20 nM |
